Measured values reported in patent publication US12661431B2, “Pharmaceutical compositions for treating osteoarthritis” (INSIGNIA PHARMACEUTICALS, LLC, priority 2023, dated 2026).
“Also recorded” adds a separate entry of the source.

Assays:
[1] = system: THP-1 macrophage-like cells; experiment: IL-1beta release (ELISA) from PMA-differentiated THP-1 cells stimulated with CL075 with or without ATP; assay type: cell-based, human; details: 1 millimolar decanoic acid
Method: TLR7/8 agonists increase inflammasome activity and IL-1beta release through a different pathway relative to TLR4 agonists. To evaluate this response, THP-1 monocytic cells were differentiated to a macrophage-like state using PMA for 72 hours. […] To further activate the inflammasome, ATP was then added to the wells designated “second hit,” and the cultures were incubated for an additional hour. To indicated wells, hyaluronidase was added for 15 minutes, and all mediums harvested for IL-1beta ELISA quantification. Results are depicted in FIG. 7.

[2] = system: THP-1 macrophage-like cells; experiment: Colorimetric MTS cell density/viability assay, resting and activated THP-1 cultures; assay type: cell-based, human; details: 6 millimolar decanoic acid
Method: Then cell density was assessed in both resting and activated cultures using a colorimetric MTS assay with optical density at 490 nanometers (FIGS. 6A & 6B).

[3] = system: THP-1 macrophage-like cells; experiment: Tetrazolium colorimetric cell count assay of THP-1 cultures on HA hydrogel; assay type: cell-based, human; details: addition of decanoic acid (1 millimolar) on HA hydrogel
Method: A colorimetric assay confirmed that the inhibition of IL-1beta release was not caused solely by reduced cell counts. Tetrazolium colorimetric dye was added to the cultures at the end of the experiment and cell counts were measured by optical density at 490 nanometers.

[4] = system: THP-1 macrophage-like cells; experiment: IL-1beta release (ELISA) from PMA-differentiated THP-1 cells activated with LPS then ATP; assay type: cell-based, human; details: 0.2 (0.19) to 6 millimolar; LPS 100 ng/mL 24 hours then 10 millimolar ATP 1 hour
Method: The human monocyte cell line THP-1 was differentiated into macrophage-like cells with PMA for 72 hours. […] Cells were then activated with 100 nanograms per milliliter lipopolysaccharide (LPS) for 24 hours followed by an additional hour with 10 millimolar adenosine triphosphate (ATP). LPS is a toll-like receptor 4 (TLR4) agonist, and ATP activates […] to promote inflammasome activity. The resulting IL-1beta release was quantified by enzyme-linked immunosorbent assay (ELISA).

[5] = system: Human osteoarthritic chondrocytes; experiment: Microscopic examination of chondrocyte spheroid morphology on HA hydrogel; assay type: cell-based
Method: The chondrocytes were layered on top of an HA hydrogel (SYNVISC®, Sanofi-Aventis, United States). Following 20 days, hyaluronidase was added to release the cells from the hydrogel, the cells were collected, and total RNA was isolated.
Control chondrocytes established a monolayer on the bottom surface of their culture wells (FIG. 4A).

[6] = system: Human osteoarthritic chondrocytes; experiment: Immunostaining for SOX9, Col2a1 and ACAN of osteoarthritic chondrocytes cultured 24 days on HA hydrogel; assay type: cell-based
Text: ACAN is an articular cartilage-specific proteoglycan that is important to the proper function and the load-bearing capacity of cartilage. Data is presented as the fluorescence of photographic images captured on an epifluorescent microscope for the ACAN signal (FU) normalized to the signal of 4′,6-diamidino-2-phenylindole (DAPI) nuclear stain, designated as FU/DAPI.
The chondrocytes were layered on top of an HA hydrogel (SYNVISC®, Sanofi-Aventis, United States). Following 24 days, the cells were fixed with paraformaldehyde and immunostained for SOX9, Col2a1, and ACAN.

[7] = system: Osteoarthritic fibroblast-like chondrocytes; experiment: MMP13 expression by real time RT-PCR in osteoarthritic fibroblast-like chondrocytes; assay type: cell-based; details: 0.1 percent hyaluronic acid and/or 0.1 micromolar dexamethasone
Method: Osteoarthritic fibroblast-like chondrocytes were cultured for 2 to 28 days in the presence of either 0.1 percent hyaluronic acid, 0.1 micromolar dexamethasone, or both 0.1 percent hyaluronic acid and 0.1 micromolar dexamethasone. Media was exchanged every 2-3 days. Chondrocytes cultured for 2 days, 14 days, or 28 days were analyzed by real time RT-PCR to assess matrix metallopeptidase 13 (MMP13) expression.

[8] = high-density monolayers, vehicle, 0.1, 0.5 and 1 millimolar decanoic acid

Compound	decrease concentration of IL-1beta ([1]; CL075 24 hours then ATP 1 hour (second hit))	decrease concentration of IL-1beta ([1]; CL075 24 hours, absence of ATP (first hit))	cell density / viability (MTS, OD 490 nanometers) [2]	decrease in optical density at 490 nanometers (cell counts) ([3]; CL075, absence of ATP)	decrease in optical density at 490 nanometers (cell counts) ([3]; CL075, presence of ATP)	inhibition of inflammasome-IL-1beta release [4]	spheroid morphology after 4 days of culture ([5]; 4 days on HA hydrogel, with vs without decanoic acid)	spheroid morphology after 20 days of culture ([5]; 20 days on HA hydrogel, 1 millimolar decanoic acid vs without)	spheroid development or condensation ([6]; 1 millimolar decanoic acid, 24 days on HA hydrogel)	concentration of peak Col2a1 staining ([6]; high-density monolayers)	punctate staining for Col2a1 [6, 8]	staining for aggrecan (ACAN) [6, 8]	nuclear staining for SOX9 ([6]; high-density monolayers, vehicle, 0.1, 0.5 and 1 millimolar decanoic acid, 24 days on HA hydrogel)	punctate immunostaining for Col2a1 ([6]; low-density monolayers, 1 millimolar decanoic acid)	intracellular staining for ACAN (FU/DAPI, FIG. 1) ([6]; low-density monolayers, increasing millimolar concentrations, strongest at 1 millimolar)	ACAN immunostaining of chondrocyte spheroids ([6]; spheroids on HA hydrogels, 1 millimolar decanoic acid)	Change in MMP13 expression at day 2 [7]	Change in MMP13 expression at day 14 [7]	Change in MMP13 expression at day 28 [7]
CCCCCCCCCC(=O)O [decanoic acid]	91%	77%	significant decrease in viability; also recorded: unfavorable effect on cell density	18%	25%	dose-dependent inhibition of IL-1beta concentrations; also recorded: dose-dependent inhibition of inflammasome-IL-1beta release	the spheroids generated interconnected networks; also recorded: promoted interconnected networks of spheroids	increased condensation and the development of large spheroids; also recorded: large spheroid development or condensation	enhanced spheroid development or condensation	0.5 millimolar	dose-dependent punctate staining for Col2a1	dose-dependent increase in staining for aggrecan	enhanced nuclear staining for SOX9 in a dose-dependent manner	strong punctate immunostaining for Col2a1	dose-dependent increase in aggrecan (ACAN) immunofluorescence staining; also recorded: dose-dependent intracellular staining for ACAN	strong ACAN immunostaining	–	–	–
C[C@@H]1C[C@H]2[C@@H]3CCC4=CC(=O)C=C[C@]4(C)[C@@]3(F)[C@@H](O)C[C@]2(C)[C@@]1(O)C(=O)CO [dexamethasone]	–	–	–	–	–	–	–	–	–	–	–	–	–	–	–	–	0	−399	−4
